# From PubChem BioAssay AID330 (DTP/NCI, 2004)
# Values joined by “and” are separate entries in the source; they are usually repeats but may differ in a detail not shown here. Equal entries are not always repeated. Toxic doses and inconclusive results are not listed.
# Test system: P388 leukemia ip, CD2F1 mice, survival T/C
# Test: NCI In Vivo Anticancer Drug Screen. Data for tumor model P388 Leukemia (intraperitoneal) in CD2F1 (CDF1) mice
# Settings: endpoint: median survival time, higher = longer survival
# Procedure, shortened: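 Mice carrying the transplanted tumor received test compound or vehicle. Survival was recorded in each group, and the value is the treated-group measurement divided by that of the vehicle-treated control group.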
# [1] = dose: 50.0 mg/kg/injection, schedule: Q01DX005 (ip), vehicle: saline
# [2] = dose: 100.0 mg/kg/injection, schedule: Q01DX005 (ip), vehicle: saline
# [3] = dose: 12.5 mg/kg/injection, schedule: Q01DX009 (ip), vehicle: saline with Tween-80
# [4] = dose: 25.0 mg/kg/injection, schedule: Q01DX009 (ip), vehicle: saline with Tween-80
# [5] = dose: 50.0 mg/kg/injection, schedule: Q01DX009 (ip), vehicle: saline with Tween-80
# [6] = dose: 100.0 mg/kg/injection, schedule: Q01DX009 (ip), vehicle: saline with Tween-80
# [7] = dose: 50.0 mg/kg/injection, schedule: Q01DX005 (ip), vehicle: saline with Tween-80
# [8] = dose: 100.0 mg/kg/injection, schedule: Q01DX005 (ip), vehicle: saline with Tween-80
# [9] = dose: 200.0 mg/kg/injection, schedule: Q01DX005 (ip), vehicle: saline with Tween-80
# [10] = dose: 100.0 mg/kg/injection, schedule: Q01DX001 (ip), vehicle: saline
# [11] = dose: 200.0 mg/kg/injection, schedule: Q01DX001 (ip), vehicle: saline
# [12] = dose: 400.0 mg/kg/injection, schedule: Q01DX001 (ip), vehicle: saline
# [13] = dose: 100.0 mg/kg/injection, schedule: Q04DX003 (ip), vehicle: saline with Tween-80
# [14] = dose: 200.0 mg/kg/injection, schedule: Q04DX003 (ip), vehicle: saline with Tween-80
# [15] = dose: 50.0 mg/kg/injection, schedule: Q01DX009 (ip), vehicle: saline
# [16] = dose: 100.0 mg/kg/injection, schedule: Q01DX009 (ip), vehicle: saline
# [17] = dose: 200.0 mg/kg/injection, schedule: Q01DX009 (ip), vehicle: saline
# [18] = dose: 50.0 mg/kg/injection, schedule: Q01DX009 (ip), vehicle: Klucel (hydroxypropylcellulose) (HPC)
# [19] = dose: 100.0 mg/kg/injection, schedule: Q01DX009 (ip), vehicle: Klucel (hydroxypropylcellulose) (HPC)
# [20] = dose: 50.0 mg/kg/injection, schedule: Q01DX005 (ip), vehicle: Klucel (hydroxypropylcellulose) (HPC)
# [21] = dose: 100.0 mg/kg/injection, schedule: Q01DX005 (ip), vehicle: Klucel (hydroxypropylcellulose) (HPC)
# [22] = dose: 200.0 mg/kg/injection, schedule: Q01DX005 (ip), vehicle: saline
smiles,measurement,setting,value
C=C/C=C\CN(C)Cc1ccccc1,T/C,"dose: 12.5 mg/kg/injection, schedule: Q01DX005 (ip), vehicle: saline",99 % of control
same,T/C,"dose: 25.0 mg/kg/injection, schedule: Q01DX005 (ip), vehicle: saline",105 % of control
same,T/C,[1],106 % of control and 108 % of control
same,T/C,[2],101 % of control
CC(C)N1C(=O)C=C(c2ccc([N+](=O)[O-])cc2)C1=O,T/C,[3],105 % of control
same,T/C,[4],105 % of control
same,T/C,[5],106 % of control
Cc1cc(C(C)(C)C)c(O)c(C(C)(C)C)c1,T/C,"dose: 100.0 mg/kg/injection, schedule: Q01DX009 (ip), vehicle: distilled water + Tween-80 + alcohol",104 % of control
same,T/C,"dose: 200.0 mg/kg/injection, schedule: Q01DX009 (ip), vehicle: distilled water + Tween-80 + alcohol",102 % of control
same,T/C,"dose: 400.0 mg/kg/injection, schedule: Q01DX009 (ip), vehicle: distilled water + Tween-80 + alcohol",98 % of control
Clc1c2c(c(Cl)c3c1=Nc1ncccc1O3)=Nc1ncccc1O2,T/C,[5],100 % of control
same,T/C,[6],96 % of control
same,T/C,"dose: 200.0 mg/kg/injection, schedule: Q01DX009 (ip), vehicle: saline with Tween-80",99 % of control
CCCCCCCCSC(SCCCCCCCC)C(O)C(O)C(O)CO (centres undefined),T/C,[7],93 % of control
same,T/C,[8],109 % of control
CCOC(=O)CNC(=O)NN(c1ccccc1)C1CCS(=O)(=O)C1 (centres undefined),T/C,[7],100 % of control
same,T/C,[8],90 % of control
same,T/C,[9],94 % of control
CC1=NC2=NC(CCCC(=O)OCc3ccc(Cl)c(Cl)c3)=NC3=CC=CC(=N1)N32,T/C,[4],101 % of control
same,T/C,[5],111 % of control
same,T/C,[6],95 % of control
CN(C)Cc1onc(-c2c(Cl)cccc2Cl)c1C(=O)O,T/C,"dose: 60.0 mg/kg/injection, schedule: Q01DX005 (ip), vehicle: saline with Tween-80",103 % of control
same,T/C,"dose: 120.0 mg/kg/injection, schedule: Q01DX005 (ip), vehicle: saline with Tween-80",95 % of control
COC1CC(CC2CCC(C)C(C(C)C(=O)O)O2)OC2(OC(C)(C3CCC(C)(C4OC(C5OC(O)(CO)C(C)CC5C)CC4C)O3)CC2C)C1C (centres undefined),T/C,"dose: 0.08 mg/kg/injection, schedule: Q01DX009 (ip), vehicle: Klucel (hydroxypropylcellulose) (HPC)",103 % of control
same,T/C,"dose: 0.15 mg/kg/injection, schedule: Q01DX009 (ip), vehicle: Klucel (hydroxypropylcellulose) (HPC)",109 % of control
same,T/C,"dose: 0.31 mg/kg/injection, schedule: Q01DX009 (ip), vehicle: Klucel (hydroxypropylcellulose) (HPC)",104 % of control and 105 % of control and 107 % of control
same,T/C,"dose: 2.5 mg/kg/injection, schedule: Q01DX009 (ip), vehicle: Klucel (hydroxypropylcellulose) (HPC)",102 % of control and 123 % of control and 91 % of control
same,T/C,"dose: 5.0 mg/kg/injection, schedule: Q01DX009 (ip), vehicle: Klucel (hydroxypropylcellulose) (HPC)",100 % of control
CC(C)c1ccc(C(=O)C2C(=O)C=C(c3ccc(C(C)C)cc3)OC2=O)cc1 (centres undefined),T/C,[10],105 % of control
same,T/C,[11],108 % of control
same,T/C,[12],118 % of control
Cc1cc(Cl)ccc1N=C(N)N,T/C,[3],100 % of control
same,T/C,[4],101 % of control
same,T/C,[5],99 % of control and 107 % of control
Cc1cc(OCC(=O)N/N=C/c2ccc(N(CCCl)CCCl)cc2)c2c(=O)c3ccccc3oc2c1,T/C,"dose: 60.0 mg/kg/injection, schedule: Q01DX005 (ip), vehicle: Klucel (hydroxypropylcellulose) (HPC)",94 % of control
same,T/C,"dose: 120.0 mg/kg/injection, schedule: Q01DX005 (ip), vehicle: Klucel (hydroxypropylcellulose) (HPC)",117 % of control
same,T/C,"dose: 240.0 mg/kg/injection, schedule: Q01DX005 (ip), vehicle: Klucel (hydroxypropylcellulose) (HPC)",88 % of control
c1ccc(CN2CCC3(CC2)CO3)cc1,T/C,"dose: 100.0 mg/kg/injection, schedule: Q01DX001 (ip), vehicle: Klucel (hydroxypropylcellulose) (HPC)",106 % of control
same,T/C,"dose: 200.0 mg/kg/injection, schedule: Q01DX001 (ip), vehicle: Klucel (hydroxypropylcellulose) (HPC)",100 % of control
CC(=O)C[n+]1ccccc1C,T/C,[7],93 % of control
same,T/C,[8],107 % of control
CSc1nc(N)c(I)c(Cl)n1,T/C,"dose: 50.0 mg/kg/injection, schedule: Q04DX003 (ip), vehicle: saline with Tween-80",100 % of control
same,T/C,[10],110 % of control
same,T/C,[13],102 % of control
same,T/C,[11],113 % of control
same,T/C,[14],93 % of control
same,T/C,[12],110 % of control
C[C@H]1[C@H](O)[C@H]2[C@@H](CCC3=CC(=O)CC[C@@]32C)[C@@H]2CC[C@H](O)[C@@]12C,T/C,[13],104 % of control
same,T/C,[14],100 % of control
same,T/C,"dose: 400.0 mg/kg/injection, schedule: Q04DX003 (ip), vehicle: saline with Tween-80",100 % of control
CN(C)[C@@H]1C(=O)C(C(=O)NCNC2(C(=O)O)CCCC2)=C(O)[C@@]2(O)C(=O)C3=C(O)c4c(O)cccc4[C@@](C)(O)[C@H]3C[C@@H]12,T/C,[15],103 % of control
same,T/C,[16],95 % of control
same,T/C,"dose: 100.0 mg/kg/injection, schedule: Q01DX009 (ip), vehicle: suspension in saline",91 % of control
same,T/C,[17],106 % of control
same,T/C,"dose: 200.0 mg/kg/injection, schedule: Q01DX009 (ip), vehicle: suspension in saline",93 % of control
same,T/C,"dose: 400.0 mg/kg/injection, schedule: Q01DX009 (ip), vehicle: saline",98 % of control
same,T/C,"dose: 400.0 mg/kg/injection, schedule: Q01DX009 (ip), vehicle: suspension in saline",111 % of control
CCCCCC(=O)C(=O)c1ccc(O)c(C)c1O,T/C,[18],95 % of control
same,T/C,[19],89 % of control
Cc1nc(Nc2ccc(F)cc2)c2c(-c3ccccc3)c[nH]c2n1,T/C,[20],90 % of control
same,T/C,[21],88 % of control
CN(CCNCC1CCCN1C)Cc1cccc(Cl)c1 (centres undefined),T/C,[1],108 % of control
same,T/C,[2],101 % of control
same,T/C,[22],106 % of control
CC1Cc2ccc(OCCN(C)C)cc2C1O (centres undefined),T/C,[1],104 % of control
same,T/C,[2],102 % of control
same,T/C,[22],104 % of control
NC(=O)CCC(NC(=O)OCC1c2ccccc2-c2ccccc21)C(=O)O (centres undefined),T/C,[20],104 % of control
same,T/C,[21],103 % of control
same,T/C,"dose: 200.0 mg/kg/injection, schedule: Q01DX005 (ip), vehicle: Klucel (hydroxypropylcellulose) (HPC)",104 % of control
c1ccc2c(C3CO3)c3ccccc3c(C3CO3)c2c1 (centres undefined),T/C,[15],99 % of control
same,T/C,[16],116 % of control
same,T/C,[17],116 % of control
COc1ccc(CC2c3cc(OC)c(OC)c(OC)c3CC[N+]2(C)C)cc1Oc1ccc(CC2c3cc4c(c(OC)c3CC[N+]2(C)C)OCO4)cc1 (centres undefined),T/C,"dose: 1.56 mg/kg/injection, schedule: Q04DX003 (ip), vehicle: saline",99 % of control
same,T/C,"dose: 3.13 mg/kg/injection, schedule: Q04DX003 (ip), vehicle: saline",101 % of control
COc1ccc(CC2c3cc4c(cc3CCN2C)OCO4)c(C=O)c1OC (centres undefined),T/C,"dose: 12.5 mg/kg/injection, schedule: Q01DX001 (ip), vehicle: saline + alcohol",93 % of control
same,T/C,"dose: 25.0 mg/kg/injection, schedule: Q01DX001 (ip), vehicle: saline + alcohol",97 % of control
same,T/C,"dose: 50.0 mg/kg/injection, schedule: Q01DX001 (ip), vehicle: saline + alcohol",99 % of control
Brc1ccc(C[N+]23CCN(CC2)CC3)cc1,T/C,[3],95 % of control
same,T/C,[4],90 % of control
same,T/C,[5],90 % of control
CCOC(=O)C(CC)Oc1ccc(Cl)cc1 (centres undefined),T/C,[18],102 % of control
same,T/C,[19],89 % of control
C=CCOc1ccccc1/C(CC)=N/N(C)C,T/C,[15],111 % of control
same,T/C,[16],100 % of control
CC(C)N(C)N=Nc1ccc(C(N)=O)cc1,T/C,[18],114 % of control and 120 % of control
same,T/C,[19],113 % of control
CCN(CCCN(C)C)c1ccc(/C=C/c2ccnc3ccccc23)cc1,T/C,[16],108 % of control
CCN(CC)CCOC(C)(C)C#CC(C)(C)O,T/C,[7],100 % of control
same,T/C,[8],99 % of control
same,T/C,[9],99 % of control
O=C(Nc1ccc(Sc2ccc(N=Nc3c(O)c(S(=O)(=O)O)cc4cc(S(=O)(=O)O)ccc34)cc2)cc1)c1ccc(N=Nc2cc(S(=O)(=O)O)c3ccccc3c2O)cc1,T/C,[7],98 % of control
same,T/C,[8],102 % of control
same,T/C,[9],98 % of control
